The record followed here is patent US20240246992A1, “MACROCYCLIC LRRK2 KINASE INHIBITORS” (LES LABORATOIRES SERVIER, priority 2021, published 2024).

Bounds are passed on as bounds.

Usually IC50 stands for the concentration that inhibits the measured activity by half.

The target of this experiment is human recombinant LRRK2 protein (Homo sapiens, UniProt Q5S007). Nature of the experiment: LRRK2 kinase activity assay (ADP-Glo, LRRKtide peptide). In kind it is biochemical. The conditions noted are these: human recombinant LRRK2 wt, LRRKtide peptide and ATP, 1 h at 37° C. The essentials: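 ADP-Glo luminescence read-out of a peptide assay: compound, ATP and LRRKtide substrate combined with recombinant human LRRK2 and incubated at 37 °C for 1 h. Ten-point data, N=2, curve-fitted to IC50.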
human recombinant LRRK2 protein, sequence (Q5S007 whole entry): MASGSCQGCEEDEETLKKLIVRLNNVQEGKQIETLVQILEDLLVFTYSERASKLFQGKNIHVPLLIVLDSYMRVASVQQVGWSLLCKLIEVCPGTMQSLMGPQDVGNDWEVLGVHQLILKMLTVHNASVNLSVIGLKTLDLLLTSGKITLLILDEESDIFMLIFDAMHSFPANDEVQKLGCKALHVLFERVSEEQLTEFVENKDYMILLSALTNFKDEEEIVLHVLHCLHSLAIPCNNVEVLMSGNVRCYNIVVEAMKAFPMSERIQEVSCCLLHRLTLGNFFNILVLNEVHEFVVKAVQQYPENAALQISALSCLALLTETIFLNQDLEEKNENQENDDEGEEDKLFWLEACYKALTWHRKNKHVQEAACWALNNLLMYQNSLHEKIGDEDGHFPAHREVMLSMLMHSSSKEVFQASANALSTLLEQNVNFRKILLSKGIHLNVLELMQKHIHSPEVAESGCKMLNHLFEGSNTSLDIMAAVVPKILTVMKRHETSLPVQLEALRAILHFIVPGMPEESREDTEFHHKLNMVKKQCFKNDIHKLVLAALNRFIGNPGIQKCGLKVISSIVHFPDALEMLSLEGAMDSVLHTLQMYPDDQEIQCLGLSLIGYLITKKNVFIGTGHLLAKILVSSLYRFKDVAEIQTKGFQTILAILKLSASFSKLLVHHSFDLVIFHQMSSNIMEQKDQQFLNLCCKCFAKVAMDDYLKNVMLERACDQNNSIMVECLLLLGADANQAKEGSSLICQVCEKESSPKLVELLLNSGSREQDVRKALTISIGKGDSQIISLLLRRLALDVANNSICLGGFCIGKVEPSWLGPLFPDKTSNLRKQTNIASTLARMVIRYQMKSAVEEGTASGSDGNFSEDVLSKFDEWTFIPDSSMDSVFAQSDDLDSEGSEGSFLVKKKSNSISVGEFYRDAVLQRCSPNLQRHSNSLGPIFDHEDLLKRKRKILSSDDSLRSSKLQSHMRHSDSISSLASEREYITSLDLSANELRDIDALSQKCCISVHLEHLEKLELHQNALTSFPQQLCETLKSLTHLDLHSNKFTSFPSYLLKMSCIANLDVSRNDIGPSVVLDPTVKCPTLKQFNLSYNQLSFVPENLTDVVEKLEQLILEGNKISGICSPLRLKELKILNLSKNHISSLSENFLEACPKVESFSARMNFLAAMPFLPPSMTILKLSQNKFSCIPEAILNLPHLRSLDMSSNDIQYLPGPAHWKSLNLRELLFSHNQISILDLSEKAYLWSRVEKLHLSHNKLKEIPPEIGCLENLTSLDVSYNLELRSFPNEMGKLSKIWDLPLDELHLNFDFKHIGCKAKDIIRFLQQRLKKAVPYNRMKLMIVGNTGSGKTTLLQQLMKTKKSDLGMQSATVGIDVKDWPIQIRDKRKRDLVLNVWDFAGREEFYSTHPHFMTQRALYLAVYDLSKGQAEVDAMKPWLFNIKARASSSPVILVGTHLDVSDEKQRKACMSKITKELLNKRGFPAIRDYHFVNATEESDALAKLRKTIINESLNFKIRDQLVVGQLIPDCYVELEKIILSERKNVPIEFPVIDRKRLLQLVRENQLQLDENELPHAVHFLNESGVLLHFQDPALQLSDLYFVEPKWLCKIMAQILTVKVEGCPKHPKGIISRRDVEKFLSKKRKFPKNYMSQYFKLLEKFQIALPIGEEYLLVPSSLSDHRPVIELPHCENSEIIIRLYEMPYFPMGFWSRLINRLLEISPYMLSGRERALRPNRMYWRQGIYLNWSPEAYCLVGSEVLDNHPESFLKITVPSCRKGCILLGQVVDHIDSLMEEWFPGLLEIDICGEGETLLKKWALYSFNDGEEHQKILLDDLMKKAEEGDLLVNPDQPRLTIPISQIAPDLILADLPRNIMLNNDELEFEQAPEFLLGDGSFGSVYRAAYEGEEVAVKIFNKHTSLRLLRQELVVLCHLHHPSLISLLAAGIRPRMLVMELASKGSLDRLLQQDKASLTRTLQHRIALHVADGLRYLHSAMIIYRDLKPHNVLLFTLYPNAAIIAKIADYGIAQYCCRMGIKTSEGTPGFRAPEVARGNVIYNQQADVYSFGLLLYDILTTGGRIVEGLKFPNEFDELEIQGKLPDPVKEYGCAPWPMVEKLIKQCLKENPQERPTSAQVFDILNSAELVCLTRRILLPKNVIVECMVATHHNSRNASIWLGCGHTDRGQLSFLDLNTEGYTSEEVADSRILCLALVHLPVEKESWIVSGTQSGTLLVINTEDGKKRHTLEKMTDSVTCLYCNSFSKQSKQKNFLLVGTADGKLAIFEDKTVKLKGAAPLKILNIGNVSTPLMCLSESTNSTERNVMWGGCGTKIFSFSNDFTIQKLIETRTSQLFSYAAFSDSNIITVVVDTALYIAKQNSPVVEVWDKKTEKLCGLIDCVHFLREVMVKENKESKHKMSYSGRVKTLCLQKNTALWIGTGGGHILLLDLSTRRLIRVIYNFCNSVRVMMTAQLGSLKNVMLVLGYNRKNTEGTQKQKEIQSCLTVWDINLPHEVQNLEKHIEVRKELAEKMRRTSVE
Background: ADP-Glo turns the ADP formed in a reaction into a luminescent signal.
Consider `C[C@H]1CCOCCCc2cccc(c2)-c2n[nH]c3ccc(cc23)O1` [Example 43, (13S)-13-methyl-10,14-dioxa-19,20-diazatetracyclo[13.5.2.1^2,6.0^18,21]tricosa-1(20),2(23),3,5,15(22),16,18(21)-heptaene], for which the IC50 is below 10 nM.
On to `C[C@@H]1Cn2cc(cn2)-c2n[nH]c3ccc(cc23)OCCOCCO1` [Example 77, (7R)-7-methyl-8,11,14-trioxa-4,5,19,20-tetraazatetracyclo[13.5.2.1^2,5.0^18,21] tricosa-1(20),2(23),3,15(22),16,18(21)-hexaene], for which the IC50 is below 100 nM.
As to `C[C@H]1COc2cc3c(n[nH]c3cn2)-c2cnn(c2)CCOCCO1` [Example 246], the IC50 is below 100 nM.
For the molecule `C[C@@H]1CCNC(=O)C[C@H](C)n2ncc(n2)-c2n[nH]c3ccc(cc23)O1` [Example 242], the IC50 is below 10 nM.
`Cc1cc2nc(n1)OCCCOC[C@H](C)Oc1ccc3[nH]nc-2c3c1` [Example 29, (13S)-4,13-dimethyl-7,11,14-trioxa-5,19,20,23-tetraazatetracyclo[13.5.2.1^2,6.0^18,21]tricosa-1(20),2(23),3,5,15(22),16,18(21)-heptaene]: the half-maximal inhibitory concentration (IC50) is below 10 nM.
Regarding `C[C@H]1CCOCCCn2cnc(c2)-c2n[nH]c3ccc(cc23)O1` [Example 57, (12S)-12-methyl-9,13-dioxa-3,5,18,19-tetraazatetracyclo [12.5.2.1^2,5.0^17,20] docosa-1(19),2(22),3,14(21),15,17(20)-hexaene], the IC50 was below 1000 nM.
Consider `C[C@H]1CCCOCCn2ncc(n2)-c2n[nH]c3ccc(cc23)O1` [Example 122, (12S)-12-methyl-8,13-dioxa-4,5,18,19,22-pentaazatetracyclo[12.5.2.1^2,5.0^17,20]docosa-1(19),2(22),3,14(21),15,17(20)-hexaene], for which the IC50 was below 10 nM.
Take `C[C@@H]1CCOC[C@@H](C)Oc2ccc3[nH]nc(c3c2)-c2cncc(c2)O1` [Example 17, (8R,13R)-8,13-dimethyl-7,11,14-trioxa-4,19,20-triazatetracyclo[13.5.2.1^2,6. 0^18,21]tricosa-1(20),2(23),3,5,15(22),16,18(21)-heptaene]: the IC50 was below 10 nM.
With `C[C@@H]1CCCOC[C@@H](C)n2cc(cn2)-c2n[nH]c3ccc(cc23)O1` [Example 128, (6R,12R)-6,12-dimethyl-8,13-dioxa-4,5,18,19-tetraazatetracyclo[12.5.2.1^2,5.0^17,20]docosa-1(19),2(22),3,14(21),15,17(20)-hexaene], the IC50 is below 10 nM.
In the case of `C[C@@H]1CCOCCOCC2=NC=C(S2)c2n[nH]c3ccc(cc23)O1` [Example 75, (13R)-13-methyl-7,10,14-trioxa-23-thia-4,19,20-triazatetracyclo[13.5.2.1^2,5.0^18,21]tricosa-1(20),2,4,15(22),16,18(21)-hexaene], the IC50 was below 10 nM.
With `C[C@@H]1CCN(C)C(=O)C[C@H](C)n2ncc(n2)-c2n[nH]c3ccc(cc23)O1` [Example 243], the IC50 is below 100 nM.
As to `C[C@@H]1NCCOc2cccc(c2)-c2n[nH]c3ccc(cc23)OC[C@H]1F` [Example 184, (11S,12S)-12-fluoro-11-methyl-7,14-dioxa-10,19,20-triazatetracyclo[13.5.2.1^2,6.0^18,21]tricosa-1(20),2,4,6(23),15,17,21-heptaene], the IC50 is below 100 nM.
As to `O=C1COc2cc(cc(C3CCCOC3)c2)-c2n[nH]c3ccc(cc23)OCCCN1` (centres unmarked) [Example 148, 4-(oxan-3-yl)-7,14-dioxa-10,19,20-triazatetracyclo[13.5.2.1^2,6.0^18,21]tricosa-1(20),2(23),3,5,15,17,21-heptaen-9-one], the IC50 is below 10 nM.
Consider `C[C@H]1CCNCCOc2cncc(c2)-c2n[nH]c3ccc(cc23)O1` [Example 232, (13S)-13-methyl-7,14-dioxa-4,10,19,20-tetraazatetracyclo[13.5.2.1^2,6.0^18,21]tricosa-1(20),2,4,6(23),15(22),16,18(21)-heptaene], for which the IC50 is below 10 nM.
Next, `O=C1COc2cc(Cl)cc(c2)-c2n[nH]c3ccc(cc23)OCCCN1` [Example 142, 4-chloro-7,14-dioxa-10,19,20-triazatetracyclo[13.5.2.1^2,6.0^18,21]tricosa-1(20),2,4,6(23),15,17,21-heptaen-9-one]: below 10 nM.
Consider `O=C1CCn2ncc(n2)-c2n[nH]c3ccc(cc23)OCCCN1` [Example 181, 13-oxa-4,5,9,18,19,22-hexaazatetracyclo[12.5.2.1^2,5.0^17,20] docosa-1(19),2(22),3,14(21),15,17(20)-hexaen-8-one], for which the IC50 is below 10 nM.
In the case of `c1ncc2cc1CCOCCOCCOc1ccc3[nH]nc-2c3c1` [Example 68, 9,12,15-trioxa-4,20,21-triazatetracyclo[14.5.2.1^2,6.0^19,22]tetracosa-1(21), 2(24),3,5,16(23),17,19(22)-heptaene], the IC50 was below 100 nM.
For `CC1CCOc2ccc3[nH]nc(c3c2)-c2cccc(n2)OCCN1` (centres unmarked) [Example 240, 11-methyl-7,14-dioxa-10,19,20,23-tetraazatetracyclo[13.5.2.1^2,6.0^18,21]tricosa-1(20),2,4,6(23),15,17,21-heptaene], the concentration for half-maximal inhibition (IC50) is below 10 nM.
For `C[C@H]1CCOCCCn2cc(cn2)-c2n[nH]c3ccc(cc23)O1` [Example 32, (12S)-12-methyl-9,13-dioxa-4,5,18,19-tetraazatetracyclo[12.5.2.1^2,5.0^17,20] docosa-1(19),2(22),3,14(21),15,17(20)-hexaene], the IC50 was below 10 nM.
Next, `c1cc2[nH]nc3c2cc1OCCCOCCOc1cncc-3c1` [Example 2, 7,10,14-trioxa-4,19,20-triazatetracyclo[13.5.2.1^2,6.0^18,21]tricosa-1(20),2(23), 3,5,15(22),16,18(21)-heptaene]: below 10 nM.
Next, `C[C@H]1CCOC[C@H](C)Oc2cncc(n2)-c2n[nH]c3ccc(cc23)O1` [Example 47, (8S,13S)-8,13-dimethyl-7,10,14-trioxa-4,19,20,23-tetraazatetracyclo[13.5.2.1^2,6.0^18,21]tricosa-1(20),2(23),3,5,15(22),16,18(21)-heptaene]: below 100 nM; `C[C@@H]1CCOc2ccc3[nH]nc(c3c2)-c2cnn(c2)[C@H](C)CCO1` [Example 123, (6R,10R)-6,10-dimethyl-9,13-dioxa-4,5,18,19-tetraazatetracyclo[12.5.2.1^2,5.0^17,20]docosa-1(19),2(22),3,14(21),15,17(20)-hexaene]: below 10 nM.
Consider `C[C@@H]1C[C@@H](C)n2cc(cn2)-c2n[nH]c3ccc(cc23)OCCCO1` [Example 117, (6R,8R)-6,8-dimethyl-9,13-dioxa-4,5,18,19-tetraazatetracyclo[12.5.2.1^2,5.0^17,20] docosa-1(19),2(22),3,14(21),15,17(20)-hexaene], for which the IC50 was below 100 nM.
For `C[C@@H]1CCNC(=O)CCn2ncc(n2)-c2n[nH]c3ccc(cc23)O1` [Example 223, (12R)-12-methyl-13-oxa-4,5,9,18,19,22-hexaazatetracyclo[12.5.2.1^2,5.0^17,20]docosa-1(19),2(22),3,14(21),15,17(20)-hexaen-8-one], the IC50 was below 10 nM.
For the molecule `CC1CNCCCOc2ccc3[nH]nc(c3c2)-c2cc(cc(N3CCOCC3)c2)O1` (single isomer, unassigned) [Example 177, (8R) or (8S)-8-methyl-4-(morpholin-4-yl)-7,14-dioxa-10,19,20-triazatetracyclo[13.5.2.1^2,6.0^18,21]tricosa-1(20),2,4,6(23),15,17,21-heptaene], the IC50 is below 10 nM.
As to `C[C@@H]1COCCOc2ccc3[nH]nc(c3c2)-c2cnn(c2)CCO1` [Example 60, (9R)-9-methyl-8,11,14-trioxa-4,5,19,20-tetraazatetracyclo[13.5.2.1^2,5.0^18,21] tricosa-1(20),2(23),3,15(22),16,18(21)-hexaene], the IC50 is below 100 nM.
As for `COCC1CCOc2ccc3[nH]nc(c3c2)-c2cccc(c2)OCCN1` (single isomer, unassigned) [Example 151, (11S) or (11R)-11-(methoxymethyl)-7,14-dioxa-10,19,20-triazatetracyclo[13.5.2.1^2,6.0^18,21]tricosa-1(20),2(23),3,5,15,17,21-heptaene], the half-maximal inhibitory concentration (IC50) was below 100 nM.
For `COCC1CCOc2ccc3[nH]nc(c3c2)-c2cccc(c2)OCCN1` (single isomer, unassigned) [Example 153, (11R) or (11S)-11-(methoxymethyl)-7,14-dioxa-10,19,20-triazatetracyclo[13.5.2.1^2,6.0^18,21]tricosa-1(20),2(23),3,5,15,17,21-heptaene], the IC50 was below 100 nM.
In the case of `C[C@H]1COc2ccc3[nH]nc(c3c2)-c2cnn(c2)[C@@H](C)COCCO1` [Example 89, (6S,12S)-6,12-dimethyl-8,11,14-trioxa-4,5,19,20-tetraazatetracyclo [13.5.2.1^2,5.0^18,21]tricosa-1(20),2(23),3,15(22),16,18(21)-hexaene], the IC50 was below 10 nM.
Regarding `C[C@@H]1COCCO[C@@H](C)COc2ccc3[nH]nc(c3c2)-c2cnn1c2` [Example 87, (6R,12S)-6,12-dimethyl-8,11,14-trioxa-4,5,19,20-tetraazatetracyclo[13.5.2.1^2,5.0^18,21]tricosa-1(20),2(23),3,15(22),16,18(21)-hexaene], the IC50 is below 10 nM.
Turning to `C[C@H]1OCCOCCn2cc(cn2)-c2n[nH]c3ccc(cc23)O[C@@H]1C` [Example 113, (12R,13R)-12,13-dimethyl-8,11,14-trioxa-4,5,19,20-tetraazatetracyclo [13.5.2.1^2,5.0^18,21]tricosa-1(20),2(23),3,15(22),16,18(21)-hexaene], the IC50 is below 10 nM.
With `C[C@H]1CCOCCCc2csc(n2)-c2n[nH]c3ccc(cc23)O1` [Example 48, (12S)-12-methyl-9,13-dioxa-3-thia-18,19,22-triazatetracyclo[12.5.2.1^2,5.0^17,20]docosa-1(19),2(22),4,14(21),15,17(20)-hexaene], the IC50 is below 10 nM.
